# Test results reported in article PMC5760651, “Peptidomimetic blockade of MYB in acute myeloid leukemia” (Nature Communications, 2018).
# Non-standard residues stand in square brackets, D forms with d. Residues, ends and D or L forms follow the SMILES beside them. No end group written: not given here. *: point of attachment. Biotin = O=C1N[C@H]2[C@H](CS[C@H]2CCCCC(=O)*)N1
# B1: FITC-conjugated MYBMIM (peptide)
# chain: [dK][dL][dE][dN][dE][dT][dS][dM][dL][dL][dL][dE][dL][dE][dK][dI][dR][dK]
# modifications: also: FITC-conjugated, site not given here, retro-inverso TAT delivery segment not in chain
# Experiments:
# [1] = Plasma pharmacokinetics of BIO-MYBMIM, spectrophotometric avidin assay; assay type: in vivo, mouse; details: C57BL/6J mice, single dose 25 mg/kg IP
# Experimental: All mouse experiments were carried out in accordance with the Memorial Sloan Kettering Institutional Animal Care and Use Committee. For toxicity studies, female C57BL/6J mice (The Jackson Laboratory, Bar Harbor, Maine, USA) were treated with MYBMIM peptide suspended in PBS and administered daily through intraperitoneal injection at a dose of 25 mg/kg for a total of 7 days. Mice were sacrificed at the end of treatment for hematologic, biochemical and histologic analyses. For pharmacokinetic studies, C57BL/6J mice (The Jackson Laboratory, Bar Harbor, Maine, USA) were treated with a single IP injection of 25 mg/kg BIO-MYBMIM, and blood plasma was collected 30 min, 2 h, 4 h, and 24 h post-injection. Quantification of BIO-MYBMIM was measured using the Quant-Tag Biotin kit (Vector Labs, cat. # BDK-2000) following the manufacturer instructions. For patient-derived xenografts, two hundred thousand primary AML MLL-rearranged leukemia cells were suspended in […] of PBS and transplanted via tail vein injection into 8-week-old sublethally irradiated (200 rad) female NOD.Cg-Prkdc(scid)Il2rg(tm1Wjl)/SzJ mice (The Jackson Laboratory, Bar Harbor, Maine, USA). […] Mice were treated from days 3–17 of this study for a total of 14 days and then monitored daily with clinical examination for survival analysis.
# [2] = system: MOLM-13, MV-411, ML-2 and HL-60 cells; assay: Cell viability of AML cell lines; assay type: cell-based, human; details: 6 days, 20 μM TG1, TG2 or TG3, 10 and 20 μM MYBMIM, peptide replacement every 48 h, compared to untreated control
# Experimental: (§1) Cells were resuspended and plated at a concentration of 2 × 10^5 cells in 200 μl in 96-well tissue culture plates. Media with peptides was replaced every 48 h. To assess the number of viable cells, cells were resuspended in PBS and 10 µl of suspension was mixed in a 1:1 ratio with 0.4% Trypan Blue (Thermo Fisher) and counted using a hemacytometer (Hausser Scientific, Horsham, PA, USA). To assess viability using an ATP-based assay, cell viability was assessed using the CellTiter-Glo Luminescent Viability assay, according to the manufacturer’s instructions (Promega). Luminescence was recorded using the Infinite M1000Pro plate reader using integration time of 250 ms (Tecan).
# [3] = system: MOLM13, OCIAML2, and K562 cells; assay: Cell viability with L-amino acid containing peptides; assay type: cell-based; details: 20 μM, 2 days, three biological replicates
# Experimental: as §1
# Supplementary Figure 5. Viability of MOLM13, OCIAML2, and K562 cells, treated for 2 days with control PBS (black), 20 μM TATMYG (blue), and 20 μM TATMYB (red). Error bars […]
# between treatment conditions.
# (1 picture or pasted object on this page, not shown here)
# [4] = molecular target: FITC-conjugated MYB peptide (L-amino acid containing counterpart of MYBMIM) (UniProt P10242); assay: MST
# [5] = molecular target: T1, purified recombinant CBP KIX domain (UniProt P45481 586-665); assay: MST; details: both partners purified
# T1 construct: also called KIX domain of CBP; source: E. coli BL21(DE3), pGEX-KIX, purified (glutathione agarose, thrombin cleavage, MonoS cation exchange)
# T1 sequence (P45481 586-665): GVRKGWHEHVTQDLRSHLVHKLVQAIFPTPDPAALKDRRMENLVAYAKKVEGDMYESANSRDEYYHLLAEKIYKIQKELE
molecule,measurement,setting,value
CC[C@@H](C)[C@@H](NC(=O)[C@@H](CCCCN)NC(=O)[C@@H](CCC(=O)O)NC(=O)[C@@H](CC(C)C)NC(=O)[C@@H](CCC(=O)O)NC(=O)[C@@H](CC(C)C)NC(=O)[C@@H](CC(C)C)NC(=O)[C@@H](CC(C)C)NC(=O)[C@@H](CCSC)NC(=O)[C@@H](CO)NC(=O)[C@H](NC(=O)[C@@H](CCC(=O)O)NC(=O)[C@@H](CC(N)=O)NC(=O)[C@@H](CCC(=O)O)NC(=O)[C@@H](CC(C)C)NC(=O)[C@@H](CCCCN)NC(C)=O)[C@H](C)O)C(=O)N[C@H](CCCNC(=N)N)C(=O)N[C@H](CCCCN)C(=O)NCC(=O)NCC(=O)N[C@H](CCCNC(=N)N)C(=O)N[C@H](CCCNC(=N)N)C(=O)N[C@H](CCCNC(=N)N)C(=O)N[C@H](CCC(N)=O)C(=O)N[C@H](CCCNC(=N)N)C(=O)N[C@H](CCCNC(=N)N)C(=O)N[C@H](CCCCN)C(=O)N[C@H](CCCCN)C(=O)N[C@H](CCCNC(=N)N)C(=O)NCC(=O)N[C@H](Cc1ccc(O)cc1)C(=O)N[C@H](CCCCNC(=O)CCCC[C@@H]1SC[C@@H]2NC(=O)N[C@@H]21)C(N)=O [BIO-MYBMIM] (Ac-[dK][dL][dE][dN][dE][dT][dS][dM][dL][dL][dL][dE][dL][dE][dK][dI][dR][dK]GG[dR][dR][dR][dQ][dR][dR][dK][dK][dR]G[dY][dK](Biotin)-NH2),Plasma elimination,[1],biphasic elimination
same,Time of peak plasma peptide levels post injection,"[1]; plasma collected at 30 min, 2 h, 4 h, 24 h",≤ 30 min
CC[C@@H](C)[C@@H](NC(=O)[C@@H](CCCCN)NC(=O)[C@@H](CCC(=O)O)NC(=O)[C@@H](CC(C)C)NC(=O)[C@@H](CCC(=O)O)NC(=O)[C@@H](CC(C)C)NC(=O)[C@@H](CC(C)C)NC(=O)CNC(=O)[C@@H](CCSC)NC(=O)[C@@H](CO)NC(=O)[C@H](NC(=O)[C@@H](CCC(=O)O)NC(=O)[C@@H](CC(N)=O)NC(=O)[C@@H](CCC(=O)O)NC(=O)[C@@H](CC(C)C)NC(=O)[C@@H](CCCCN)NC(C)=O)[C@H](C)O)C(=O)N[C@H](CCCNC(=N)N)C(=O)N[C@H](CCCCN)C(=O)NCC(=O)NCC(=O)N[C@H](CCCNC(=N)N)C(=O)N[C@H](CCCNC(=N)N)C(=O)N[C@H](CCCNC(=N)N)C(=O)N[C@H](CCC(N)=O)C(=O)N[C@H](CCCNC(=N)N)C(=O)N[C@H](CCCNC(=N)N)C(=O)N[C@H](CCCCN)C(=O)N[C@H](CCCCN)C(=O)N[C@H](CCCNC(=N)N)C(=O)NCC(=O)N[C@H](Cc1ccc(O)cc1)C(N)=O [TG1] (Ac-[dK][dL][dE][dN][dE][dT][dS][dM]G[dL][dL][dE][dL][dE][dK][dI][dR][dK]GG[dR][dR][dR][dQ][dR][dR][dK][dK][dR]G[dY]-NH2),Growth of AML cell lines,[2],inactive
CC[C@@H](C)[C@@H](NC(=O)[C@@H](CCCCN)NC(=O)[C@@H](CCC(=O)O)NC(=O)[C@@H](CC(C)C)NC(=O)[C@@H](CCC(=O)O)NC(=O)[C@@H](CC(C)C)NC(=O)[C@@H](CC(C)C)NC(=O)CNC(=O)[C@@H](CCSC)NC(=O)[C@@H](CO)NC(=O)[C@H](NC(=O)[C@@H](CCC(=O)O)NC(=O)[C@@H](CC(N)=O)NC(=O)CNC(=O)[C@@H](CC(C)C)NC(=O)[C@@H](CCCCN)NC(C)=O)[C@H](C)O)C(=O)N[C@H](CCCNC(=N)N)C(=O)N[C@H](CCCCN)C(=O)NCC(=O)NCC(=O)N[C@H](CCCNC(=N)N)C(=O)N[C@H](CCCNC(=N)N)C(=O)N[C@H](CCCNC(=N)N)C(=O)N[C@H](CCC(N)=O)C(=O)N[C@H](CCCNC(=N)N)C(=O)N[C@H](CCCNC(=N)N)C(=O)N[C@H](CCCCN)C(=O)N[C@H](CCCCN)C(=O)N[C@H](CCCNC(=N)N)C(=O)NCC(=O)N[C@H](Cc1ccc(O)cc1)C(N)=O [TG2] (Ac-[dK][dL]G[dN][dE][dT][dS][dM]G[dL][dL][dE][dL][dE][dK][dI][dR][dK]GG[dR][dR][dR][dQ][dR][dR][dK][dK][dR]G[dY]-NH2),Growth of AML cell lines,[2],inactive
Ac-YGRKKRRQRRRGGKRIKELELLLMSTENELK-NH2 [TATMYB],Viability,[3],no significant differences
Ac-YGRKKRRQRRRGGKRIKELELLLMSTENGLK-NH2 [TATMYG],Viability,[3],no significant differences
purified recombinant CBP KIX domain (from UniProt P45481 586-665) (domain or fragment),Kd,[4],4.2 µM
"[dK][dL]G[dN][dE][dT][dS][dM]G[dL][dL][dE][dL][dE][dK][dI][dR][dK]GG[dR][dR][dR][dQ][dR][dR][dK][dK][dR]G[dY]-NH2 (also: FITC-conjugated, site not given here) [FITC-conjugated TG2]",Kd,[5],75.1 ± 12.5 µM
B1,Kd,[5],21.3 ± 2.9 µM
"[dK][dL][dE][dN][dE][dT][dS][dM]G[dL][dL][dE][dL][dE][dK][dI][dR][dK]GG[dR][dR][dR][dQ][dR][dR][dK][dK][dR]G[dY]-NH2 (also: FITC-conjugated, site not given here) [FITC-conjugated TG1]",Kd,[5],59.2 ± 12.4 µM
"[dK][dL]G[dN][dE][dT][dS][dM]G[dL][dL][dE][dL][dE][dK][dI]G[dK]GG[dR][dR][dR][dQ][dR][dR][dK][dK][dR]G[dY]-NH2 (also: FITC-conjugated, site not given here) [FITC-conjugated TG3]",Kd,[5],114 ± 36.6 µM
